From US20250136606A1, “MODULATORS OF TRPML, THEIR COMPOSITIONS AND METHODS OF USE” (Caraway Therapeutics, Inc., priority 2021, published 2025)
Read-outs that look alike come from different tables or passages of the source.

Legend:
Format in all cases: cell-based
TRPML2 = target: T1, TRPML2 (Homo sapiens, UniProt Q8IZK6); experiment: Fluorescent TRPML2 assay (performed as for TRPML1, substituting the TRPML2 subtype)
T1 construct: expressed in transfected cells
T1 sequence (Q8IZK6 1-566): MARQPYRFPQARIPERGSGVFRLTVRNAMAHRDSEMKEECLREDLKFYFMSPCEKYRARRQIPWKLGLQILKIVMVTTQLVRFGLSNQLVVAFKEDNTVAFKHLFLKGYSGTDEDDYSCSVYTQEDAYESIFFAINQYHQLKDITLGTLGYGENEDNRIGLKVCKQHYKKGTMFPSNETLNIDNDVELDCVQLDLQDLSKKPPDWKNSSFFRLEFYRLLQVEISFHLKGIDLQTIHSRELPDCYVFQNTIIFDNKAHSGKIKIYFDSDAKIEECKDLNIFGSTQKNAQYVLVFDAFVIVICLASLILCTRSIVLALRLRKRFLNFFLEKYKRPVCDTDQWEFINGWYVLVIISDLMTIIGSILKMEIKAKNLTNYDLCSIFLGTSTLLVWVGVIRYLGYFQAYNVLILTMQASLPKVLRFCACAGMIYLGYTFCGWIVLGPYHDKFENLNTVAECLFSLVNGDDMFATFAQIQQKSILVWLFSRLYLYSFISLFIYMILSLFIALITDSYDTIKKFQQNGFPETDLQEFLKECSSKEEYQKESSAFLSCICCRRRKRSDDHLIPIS
How it was run: (§1)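 HEK-293 Trex cells with doxycycline-induced (0.5 ug/mL) surface-directed human TRPML subtype, loaded with 1 μM Fluo4-AM, resuspended in Ringer's with 10 mM calcium. Compounds at 20 μM to 6 nM final in half-log steps, triplicate; fluorescence ex 480/em 540; EC50 by non-linear regression versus plate controls.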

TRPML3 = target: T2, TRPML3 (Homo sapiens, UniProt Q8TDD5); experiment: Fluorescent TRPML3 assay (performed as for TRPML1, substituting the TRPML3 subtype)
T2 construct: expressed in transfected cells
T2 sequence (Q8TDD5 1-553): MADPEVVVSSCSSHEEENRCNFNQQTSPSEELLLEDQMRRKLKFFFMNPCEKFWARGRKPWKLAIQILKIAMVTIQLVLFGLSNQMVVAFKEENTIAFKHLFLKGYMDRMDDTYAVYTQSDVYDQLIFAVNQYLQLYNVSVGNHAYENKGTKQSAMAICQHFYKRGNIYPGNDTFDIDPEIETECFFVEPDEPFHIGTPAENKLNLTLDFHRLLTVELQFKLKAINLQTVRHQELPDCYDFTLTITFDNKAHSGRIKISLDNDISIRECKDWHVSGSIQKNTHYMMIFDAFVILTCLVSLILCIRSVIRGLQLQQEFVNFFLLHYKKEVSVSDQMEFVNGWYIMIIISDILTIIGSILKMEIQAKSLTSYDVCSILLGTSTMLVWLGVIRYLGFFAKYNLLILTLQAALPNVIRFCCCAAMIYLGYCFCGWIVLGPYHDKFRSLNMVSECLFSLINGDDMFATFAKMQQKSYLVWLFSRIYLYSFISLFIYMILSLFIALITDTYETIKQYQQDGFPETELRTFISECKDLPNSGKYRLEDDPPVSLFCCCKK
How it was run: as §1

TRPML1 = TRPML1 (Homo sapiens, UniProt Q9GZU1); experiment: Fluorescent TRPML1 assay (Fluo4-AM calcium fluorescence in doxycycline-induced HEK-293 Trex cells)
How it was run: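 HEK-293 Trex cells stably expressing surface-directed mutant human TRPML1, induced with 0.5 µg/mL doxycycline overnight, were loaded with 1 µM Fluo4-AM and added to compound (6 nM–20 µM final, half-log steps, triplicate) in Ringer's with 10 mM calcium. Fluorescence ex 480/em 540; EC50 by non-linear regression versus plate controls.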

TRPML1, sequence (Q9GZU1 whole entry L15A/L16A/L577A/L578A, form open): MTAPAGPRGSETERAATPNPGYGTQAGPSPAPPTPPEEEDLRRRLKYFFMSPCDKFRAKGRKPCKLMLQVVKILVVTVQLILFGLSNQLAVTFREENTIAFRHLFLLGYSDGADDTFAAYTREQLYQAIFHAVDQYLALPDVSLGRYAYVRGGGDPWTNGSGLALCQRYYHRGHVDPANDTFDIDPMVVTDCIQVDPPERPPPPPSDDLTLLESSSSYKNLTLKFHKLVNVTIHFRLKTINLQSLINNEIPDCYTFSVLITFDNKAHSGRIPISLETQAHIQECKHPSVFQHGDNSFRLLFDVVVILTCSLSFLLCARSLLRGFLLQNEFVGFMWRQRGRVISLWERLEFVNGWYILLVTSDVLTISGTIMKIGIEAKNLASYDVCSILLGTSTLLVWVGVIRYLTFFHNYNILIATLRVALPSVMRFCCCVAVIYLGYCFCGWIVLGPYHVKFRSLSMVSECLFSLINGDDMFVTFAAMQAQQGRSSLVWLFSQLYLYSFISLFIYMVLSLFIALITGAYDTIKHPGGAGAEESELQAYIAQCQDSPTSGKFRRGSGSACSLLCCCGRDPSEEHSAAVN

Compound | EC50 (TRPML2; fluorescent calcium assay) [nM] | EC50 (TRPML3; fluorescent calcium assay) [nM] | EC50 (TRPML1; fluorescent calcium assay) [nM] | EC50 (TRPML2) [nM] | EC50 (TRPML3) [nM] | EC50 (TRPML1) [nM]
Cc1c(F)cc(-n2cc(N3CCCC3)c3c(N4CCN(C(=O)OC(C)(C)C)C[C@@H]4C)ncnc32)cc1F [Compound 374, tert-butyl (S)-4-(7-(3,5-difluoro-4-methylphenyl)-5-(pyrrolidin-1-yl)-7H-pyrrolo[2,3-d]pyrimidin-4-yl)-3-methylpiperazine-1-carboxylate] | 500 to 2000 | < 100 | 100 to 500 |  |  | 
C[C@@H]1CN(c2ncnc3c2c(C(C)(C)C)cn3-c2nccc(C#N)n2)[C@@H](C)CN1C(=O)OC(C)(C)C [Compound 532, tert-butyl (2R,5S)-4-(5-(tert-butyl)-7-(4-cyanopyrimidin-2-yl)-7H-pyrrolo[2,3-d]pyrimidin-4-yl)-2,5-dimethylpiperazine-1-carboxylate] |  |  |  | 500 to 2000 | 100 to 500 | < 100
C[C@@H]1CN(c2ncnc3c2c(C(F)F)cn3-c2cc(C#N)ccn2)[C@@H](C)CN1C(=O)OC1(C(F)(F)F)CCC1 [Compound 614, 1-(trifluoromethyl)cyclobutyl (2R,5S)-4-(7-(4-cyanopyridin-2-yl)-5-(difluoromethyl)-7H-pyrrolo[2,3-d]pyrimidin-4-yl)-2,5-dimethylpiperazine-1-carboxylate] |  |  |  | 100 to 500 | < 100 | < 100
C[C@@H]1CN(c2ncnc3c2c(C2CC2)cn3-c2cc(Cl)ccc2F)CCN1C(=O)OC(C)(C)C [Compound 224, tert-butyl (R)-4-(7-(5-chloro-2-fluorophenyl)-5-cyclopropyl-7H-pyrrolo[2,3-d]pyrimidin-4-yl)-2-methylpiperazine-1-carboxylate] | 100 to 500 | < 100 | < 100 |  |  | 
C[C@H]1CN(C(=O)OC(C)(C)C)CCN1c1ncnc2c1c(N1CCCC1)cn2-c1ncc(C#N)s1 [Compound 485, tert-butyl (S)-4-(7-(5-cyanothiazol-2-yl)-5-(pyrrolidin-1-yl)-7H-pyrrolo[2,3-d]pyrimidin-4-yl)-3-methylpiperazine-1-carboxylate] | 500 to 2000 | 500 to 2000 | < 100 |  |  | 
Cc1cn(-c2cccc(Cl)c2)c2ncnc(N3C[C@@H](C)N(C(=O)OC(C)(C)C)C[C@@H]3C)c12 [Compound 671, tert-butyl (2R,5S)-4-(7-(3-chlorophenyl)-5-methyl-7H-pyrrolo[2,3-d]pyrimidin-4-yl)-2,5-dimethylpiperazine-1-carboxylate] |  |  |  | 100 to 500 | < 100 | < 100
C[C@H]1CN(C(=O)OC(C)(C)C)CCN1c1ncnc2c1c(N1CCOCC1)cn2-c1cccc(C#N)c1 [Compound 324, tert-butyl (S)-4-(7-(3-cyanophenyl)-5-morpholino-7H-pyrrolo[2,3-d]pyrimidin-4-yl)-3-methylpiperazine-1-carboxylate] | 500 to 2000 | < 100 | < 100 |  |  | 
C[C@H]1CN(C(=O)OC(C)(C)C)CCN1c1ncnc2c1c(N1CCOCC1)cn2C1CCCCC1 [Compound 344, tert-butyl (S)-4-(7-cyclohexyl-5-morpholino-7H-pyrrolo[2,3-d]pyrimidin-4-yl)-3-methylpiperazine-1-carboxylate] | > 2000 | 100 to 500 | 100 to 500 |  |  | 
C[C@H]1CN(C(=O)OC(C)(C)C)CCN1c1ncnc2c1c(C1CC1)cn2-c1nccc(C#N)n1 [Compound 432, tert-Butyl (S)-4-(7-(4-cyanopyrimidin-2-yl)-5-cyclopropyl-7H-pyrrolo[2,3-d]pyrimidin-4-yl)-3-methylpiperazine-1-carboxylate] | 500 to 2000 | < 100 | 100 to 500 |  |  | 
C[C@H]1CN(C(=O)OC(C)(C)C)CCN1c1ncnc2c1c(N1CCCC1)cn2[C@H]1CCC[C@@H](C#N)C1 [Compound 529, tert-butyl (S)-4-(7-(cis-3-cyanocyclohexyl)-5-(pyrrolidin-1-yl)-7H-pyrrolo[2,3-d]pyrimidin-4-yl)-3-methylpiperazine-1-carboxylate] |  |  |  | > 2000 | 100 to 500 | 500 to 2000
C[C@H]1CN(C(=O)OC(C)(C)C)CCN1c1ncnc2c1c(N1CCCC1)cn2-c1cc(C#N)ccn1 [Compound 370, tert-butyl (S)-4-(7-(4-cyanopyridin-2-yl)-5-(pyrrolidin-1-yl)-7H-pyrrolo[2,3-d]pyrimidin-4-yl)-3-methylpiperazine-1-carboxylate] | 100 to 500 | < 100 | < 100 |  |  | 
C[C@H]1CN(C(=O)OC(C)(C)C)CCN1c1ncnc2c1c(-c1ccccc1F)cn2-c1ccnnc1 [Compound 451, tert-butyl (S)-4-(5-(2-fluorophenyl)-7-(pyridazin-4-yl)-7H-pyrrolo[2,3-d]pyrimidin-4-yl)-3-methylpiperazine-1-carboxylate] | > 2000 | 100 to 500 | 100 to 500 |  |  | 
COC(=O)c1nccnc1-c1cn(-c2cccc(Cl)c2)c2ncnc(N3CCN(C(=O)OC(C)(C)C)C[C@@H]3C)c12 [Compound 275, methyl (S)-3-(4-(4-(tert-butoxycarbonyl)-2-methylpiperazin-1-yl)-7-(3-chlorophenyl)-7H-pyrrolo[2,3-d]pyrimidin-5-yl)pyrazine-2-carboxylate] | > 2000 | 500 to 2000 | > 2000 |  |  | 
C[C@@H]1CN(c2ncnc3c2c(N2CCC2)cn3-c2cccc(C#N)c2)CCN1C(=O)OC(C)(C)C [Compound 341, tert-butyl (R)-4-(5-(azetidin-1-yl)-7-(3-cyanophenyl)-7H-pyrrolo[2,3-d]pyrimidin-4-yl)-2-methylpiperazine-1-carboxylate] | < 100 | < 100 | < 100 |  |  | 
C[C@H]1CN(C(=O)OC(C)(C)C)CCN1c1ncnc2c1c(-c1cnccn1)cn2-c1cccc(Cl)c1 [Compound 120, tert-butyl (S)-4-(7-(3-chlorophenyl)-5-(pyrazin-2-yl)-7H-pyrrolo[2,3-d]pyrimidin-4-yl)-3-methylpiperazine-1-carboxylate] | 100 to 500 | < 100 | 100 to 500 |  |  | 
C[C@@H]1CN(c2ncnc3c2c(N2CCC[C@@H]2C)cn3-c2cccc(Cl)c2)CCN1C(=O)OC(C)(C)C [Compound 262, tert-butyl (R)-4-(7-(3-chlorophenyl)-5-((S)-2-methylpyrrolidin-1-yl)-7H-pyrrolo[2,3-d]pyrimidin-4-yl)-2-methylpiperazine-1-carboxylate] | 500 to 2000 | 100 to 500 | < 100 |  |  | 
C=CCOC(=O)N(CCC)c1cn(-c2cc(Cl)ccn2)c2ncnc(N3C[C@@H](C)N(C(=O)OC(C)(C)C)C[C@@H]3C)c12 [Compound 500, tert-butyl (2R,5S)-4-(5-(((allyloxy)carbonyl)(propyl)amino)-7-(4-chloropyridin-2-yl)-7H-pyrrolo[2,3-d]pyrimidin-4-yl)-2,5-dimethylpiperazine-1-carboxylate] |  |  |  | 500 to 2000 | 100 to 500 | 100 to 500
C[C@H]1CN(C(=O)OC(C)(C)C)CCN1c1ncnc2c1c(N1CCCC1)cn2-c1cc(Cl)cc(C#N)c1 [Compound 399, tert-butyl (S)-4-(7-(3-chloro-5-cyanophenyl)-5-(pyrrolidin-1-yl)-7H-pyrrolo[2,3-d]pyrimidin-4-yl)-3-methylpiperazine-1-carboxylate] | 500 to 2000 | < 100 | 100 to 500 |  |  | 
CC1CN(C(=O)OC(C)(C)C)CCN1c1ncnc2c1c(C1CCOCC1)cn2-c1cccc(Cl)c1 (stereo not drawn) [Compound 466, tert-butyl 4-(7-(3-chlorophenyl)-5-(tetrahydro-2H-pyran-4-yl)-7H-pyrrolo[2,3-d]pyrimidin-4-yl)-3-methylpiperazine-1-carboxylate] | 500 to 2000 | < 100 | < 100 |  |  | 
Cc1c(Cl)cccc1-n1cc(-c2ccccn2)c2c(N3CCN(C(=O)OC(C)(C)C)CC3C)ncnc21 (stereo not drawn) [Compound 160, tert-butyl 4-(7-(3-chloro-2-methylphenyl)-5-(pyridin-2-yl)-7H-pyrrolo[2,3-d]pyrimidin-4-yl)-3-methylpiperazine-1-carboxylate] | 100 to 500 | < 100 | 100 to 500 |  |  | 
